In patent US5158963A, “1-4-dihydropyridine derivative, process for preparing the same and pharmaceutical composition containing the same” (Kaken Pharmaceutical Co., Ltd., priority 1989, dated 1992):
“Also recorded” adds a separate entry of the source.

Experiments:
[1] = system: tonic extensive convulsion (maximal electroshock-induced seizures); assay: Activity against maximal electroshock-induced seizures in mice; type: in vivo, mouse (Slc:ddy male mice); settings: oral
Source text: In each group six Slc: ddy male mice weighing 26 to 31 g (5 weeks) were employed. Sixty minutes after oral administration of a test compound, corneal electrodes which were wet by physiological saline were contacted with both eyes of a mouse. Then, appearance of tonic extensive convulsion (TE) caused by electrifying under a stimulation condition of 50 mA, 1000 V and 0.2 sec by means of the apparatus of Woodburg & Davenport (made by Kyoto Keisokuki) was judged as indication.
Each of diphenylhydantoin, the compounds Nos. 2, 4, 5, 6, 7, 50, 51 and 52 of the present invention (refer Table 1, hereinafter the same) and nimodipine was suspended in a 0.5% solution of methyl cellulose to subject the test. Flunarizine was suspended in a 5% solution of gum arabic to subject the test.

[2] = system: immobility time of forced swimming test; assay: Activity against immobility time of forced swimming test in mice; type: in vivo, mouse (Slc:ICR male mice); settings: oral
Procedure: In each group 6 Slc:ICR male mice weighing 25 to 32 g (5 weeks) were bred at the room temperature of 22° to 24° C. under an environment of 60% humidity for 1 week, and then the bred mice were subjected to the following test. The test was carried out by monitering action to voluntarily escape with TV camera when a mouse was put into a cylinder of which inner diameter was 11 cm wherein 17 cm of water being the temperature 25° C. as added. As indication immobility time for 6 minutes was measured. In the test mice were employed which were compulsorily swun for 6 minutes in once per day for continuous 3 day. The investigation for immobility time was carried out by measuring immobility time for 6 minutes 1 hour after oral administration of a test compound. Each of test compound was suspended in a 0.5% solution of methyl cellulose used as a control group. Significant difference is shown with the significance level (* : p<0.05) obtained by comparing data of control group by LSD method.

[3] = system: decapitation induced hypoxia; assay: Activity against decapitation induced hypoxia in mice; type: in vivo, mouse (Slc:ddy male mice); settings: oral; for inhibition in vivo at 10 mg/kg / inhibition in vivo at 30 mg/kg: Mus musculus, 1 h, 60 min before decapitation, duration of gasping vs control, read-out: Inhibition rate
Procedure: In each group five Slc:ddy male mice weighing 20 to 22 g (4 weeks) were employed. Sixty minutes after oral administration of a test compound, mice were decapitated with a guillotine. After the decapitation, duration of gasping of head was measured with a timer (CT-916 Type, made by HATTORI SEIKO CO., LTD.) gearing into the guillotine.
Each of test compound was suspended in a 0.5% solution of methyl cellulose and administered. Inhibition rate was calculated by comparing with a 0.5% aqueous solution of methyl cellulose as control. That is, the inhibition rate was calculated by the following formula. [formula]

[4] = administered over an extended period of time; cited from earlier work
[5] = system: tonic extensive convulsion caused by pentylenetetrazole; assay: Activity against convulsion caused by pentylenetetrazole in mice; type: in vivo, mouse (Slc:ddy male mice); settings: oral
Procedure: In each group 4-8 Slc:ddy male mice weighing 24 to 32 g (5 weeks) were bred at room temperature of 22° to 24° C. under an environment of 60% humidity for 1 week, and then the bred mice were subjected to the following test. The test was carried out as the following procedure. One hour after the oral administration of a test compound, 40 mg/kg of pentylenetetrazole was administered in a caudal vein. Appearance of tonic extensive convulsion caused by pentylenetetrazole was measured as indication, and anticonvulsive activity was examined. Each of test compound was suspended in a 0.5% solution of methyl cellulose used as a control group.

[6] = system: blood pressure; assay: Activity for blood pressure in rats; type: in vivo, rat (Wister male rats); settings: oral; for Blood pressure: 100 mg/kg
Procedure: In each group 4 Wister male rats weighing 200 to 300 g (10 to 15 weeks) were employed. The day before a test, rats were anesthetized with eter, and a polyethylene tube was inserted into aorta abdominalis of a rat. The other end of the polyethylene tube was led out of the rat's body. The led polyethylene tube was connected with a pressure transducer (RM-85, made by Yamamoto Kohden). Blood pressure was measured under a condition of no restriction.

[7] = Acute toxicity in mice; design: species or system mouse (Slc:ddy male mice); settings: in vivo; mouse, oral administration, death rate after 7 days
Procedure: The compound No. 2 of the present invention was orally administered to 5-15 in each group Slc:ddy male mice weighing 24 to 32 g (5 weeks). With death rate after 7 days value of acute toxicity was measured.

Structure (SMILES)	inhibitory activity against tonic extensive convulsion (share of cases) ([1]; 100 mg/kg)	inhibitory activity against tonic extensive convulsion (share of cases) ([1]; 200 mg/kg)	effect on immobility time of forced swimming test (in words) [2]	inhibition in vivo at 10 mg/kg [3] [%]	inhibition in vivo at 30 mg/kg [3] [%]	side effects caused by central nervous system inhibitory activity [4]	effect on the immobility time (in words) ([2]; 100 mg/kg)	effect on tonic extensive convulsion caused by pentylenetetrazole (in words) [5]	Blood pressure ([6]; after 15 min.) [mmHg]	Blood pressure ([6]; after 30 min.) [mmHg]	Blood pressure ([6]; after 60 min.) [mmHg]	Blood pressure ([6]; after 120 min.) [mmHg]	activity for decreasing blood pressure (in words) ([6]; normal rats)	effect in decapitation induced hypoxia (in words) [3]	LD50 at 168 h [7] [mg/kg]
Fc1ccc(C(c2ccc(F)cc2)N2CCN(C/C=C/c3ccccc3)CC2)cc1 [Flunarizine, reference compound]	a third	five sixths	ineffective; also recorded: no effect	12.1	24.3	Parkinson symptom and depression symptom									
C#Cc1cccc(C2C(C(=O)OCC)=C(C)NC(C)=C2C(=O)OCC)c1 [Compound No. 2, 3,5-Diethoxycarbonyl-1,4-dihydro-2,6-dimethyl-4-(3ethynylphenyl)pyridine]	two thirds	all cases	immobility time of forced swimming test reduced	10.8	20.5		showed the effect on the immobility time	inhibited the tonic extensive convulsion; also recorded: approximately the same extent of the effect of the positive control drug diphenylhydantoin; also recorded: stronger effect than the effect of nimodipine and the effect of nicardipine	100.6	98.4	94.8	92.9	very weak activity for decreasing blood pressure	same extent effect as that of flunarizine; also recorded: stronger effect than that of nimodipine and that of nicardipine	534
